{
  "source": "patent US20230057071A1",
  "about": "(NOVARTIS AG, priority 2019, published 2023)",
  "key": {"[1]": {"system": "AML PDX model HAMLX21432 (IDH1R132H)", "format": "in vivo", "method": "MBG453 was administered i.p. at 10 mg/kg, once weekly (starting at day 6 of dosing) either as a single agent or in combination with decitabine i.p. at 1 mg/kg, once daily for a total of 5 doses (from initiation of dosing). Initial group size: 4 animals. […] All final data were recorded on day 56. Leukemic burden was measured as a percentage of human CD45+ cells in peripheral blood by FACS analysis.\n(§1) The activity of MBG453 with and without decitabine was evaluated in two AML patient-derived xenograft (PDX) models, HAMLX21432 and HAMLX5343. Decitabine (TCI America) was formulated in dextrose 5% in water (D5W) freshly prior to each dose and administered daily for 5 days. It was administered at 10 mL/kg intraperitoneal (i.p.), for a final dose […]. MBG453 was formulated to a final concentration of 1 mg/mL in PBS. It was administered weekly at a volume of 10 mL/kg, i.p., for a final dose of 10 mg/kg, with treatment initiating on dosing day 6, 24 hours after the final dose of decitabine.\nTreatments were initiated on the day of randomization and continued for 21 days."}, "[2]": {"system": "AML PDX model HAMLX5343 (KRASG12D, WT1, PTPN11)", "format": "in vivo", "method": "Initial group size: 4 animals. […] All final data were recorded on day 56.\nas §1"}, "[3]": {"details": "cited from earlier work"}, "[4]": {"system": "THP-1 cells engineered to overexpress TIM-3", "experiment": "T cell-mediated killing of TIM-3-overexpressing versus parental THP-1 cells (co-culture, flow cytometry)", "format": "cell-based, human", "details": "25 μg/ml; 3 days co-culture; anti-CD3/anti-CD28 beads", "method": "The ratio between TIM-3-expressing THP-1 cells and parental THP-1 cells (“fold” in y-axis of graph) was calculated and normalized to conditions without anti-CD3/anti-CD28 bead stimulation. The x-axis of the graph denotes the stimulation amount as number of beads per cell. Data represents one of two independent experiments.\nTHP-1 cells express TIM-3 mRNA but low to no TIM-3 protein on the cell surface. […] TIM-3 Flag-tagged THP-1 cells were labeled with 2 μM CFSE (Thermo Fisher Scientific), and THP-1 parental cells were labeled with 2 μM CTV (Thermo Fisher Scientific), according to manufacturer instructions. Co-culture assays were performed in 96-well round-bottom plates. […] Cells were then detected and counted by flow cytometry. The ratio between TIM-3-expressing THP-1 cells and parental THP-1 cells (“fold” in y-axis of graph) was calculated and normalized to conditions without anti-CD3/anti-CD28 bead stimulation. […]"}, "[5]": {"target": "T1, TIM-3/Galectin-9 interaction (Homo sapiens, UniProt Q8TDQ0)", "T1 construct": "purchased R&D Systems", "experiment": "Plate-based (MesoScale) competition assay of the TIM-3/Galectin-9 interaction", "format": "binding", "details": "serial dilutions of antibody; labeled Galectin-9 100 nM", "method": "FIG. 1 is a graph depicting the impact of MBG453 on the interaction between TIM3 and galectin-9. Competition was assessed as a measure of the ability of the antibody to block Gal9-SULFOTag signal to TIM-3 receptor, which is shown on the Y-axis. Concentration of the antibody is shown on the X-axis.\nTIM-3 fusion protein (R&D Systems) was coated on a standard MesoScale 96 well plate (Meso Scale Discovery) at 2 μg/ml in PBS (Phosphate Buffered Saline) and incubated for six hours at room temperature. The plate was washed three times with PBST (PBS buffer containing 0.05% Tween-20) and blocked with PBS containing 5% Probumin (Millipore) overnight at 4° C. After incubation, the plate was washed three times with PBST and unlabeled antibody (F38-2E2 (BioLegend); MBG453; MBG453 F(ab′)2; MBG453 F(ab); or control recombinant human Galectin-9 protein) diluted in Assay Diluent (2% Probumin, 0.1% Tween-20, 0.1% Triton X-100 (Sigma) with 10% StabilGuard (SurModics)), was added in serial dilutions to the plate and incubated for one hour on an orbital shaker at room temperature. […] The plate was again washed three times with PBST, and Read Buffer T (1×) was added to the plate. The plate was read on MA600 Imager, and competition was assessed as a measure of the ability of the antibody to block Gal9-SULFOTag signal to TIM-3 receptor."}, "[6]": {"system": "rodent and cynomolgus monkey TGF-β", "experiment": "Species cross-reactivity of NIS793", "format": "binding"}, "IL-1 signaling": {"system": "IL-1 signaling", "details": "mouse model of disease; cited from earlier work"}, "[7]": {"details": "single agent, 1 mg/kg i.p. daily x5"}},
  "data": [
    {"compound": "Nc1ncn([C@H]2C[C@H](O)[C@@H](CO)O2)c(=O)n1", "note": "[decitabine, 4-amino-1-(2-deoxy-beta-D-erythro-pentofuranosyl)-1,3,5-triazin-2(1H)-one]", "values": [
      {"measurement": "leukemic burden, hCD45+ cells in circulation", "setting": "[1]; day 56 post-implantation", "value": 66, "unit": "%"},
      {"measurement": "leukemic burden, hCD45+ cells in peripheral blood", "setting": "[1]; group average, day 49 post-implant or day 14 post-treatment start, decitabine 1 mg/kg i.p. daily x5, MBG453 10 mg/kg i.p. weekly", "value": 51, "unit": "%"},
      {"measurement": "anti-tumor activity", "setting": "[1]; [7]", "value": "moderate anti-tumor activity"},
      {"measurement": "leukemic burden, hCD45+ cells", "setting": "[2]; group average, day 53 post-implant or day 21 post-treatment start", "value": 1, "unit": "%"},
      {"measurement": "anti-tumor activity", "setting": "[2]; [7]", "value": "significant anti-tumor activity"},
      {"measurement": "response", "setting": "[3]; 21 patients with myelofibrosis", "value": "7 of 19"},
      {"measurement": "Grade 3/4 neutropenia", "setting": "[3]; myelofibrosis cohort", "value": "95 % of patients"},
      {"measurement": "Grade 3/4 thrombocytopenia", "setting": "[3]; myelofibrosis cohort", "value": "52 % of patients"}
    ]},
    {"compound": "MBG453 F(ab): F(ab) fragment of MBG453", "values": [
      {"measurement": "T cell-mediated killing of TIM-3-overexpressing THP-1 cells relative to parental THP-1 cells", "setting": "[4]", "value": "not"},
      {"measurement": "block of the interaction between TIM-3 and Galectin-9 (Gal9-SULFOTag signal to TIM-3)", "setting": "[5]", "value": "partially blocked"}
    ]},
    {"compound": "MBG453 F(ab′)2: F(ab′)2 fragment of MBG453", "values": [
      {"measurement": "block of the interaction between TIM-3 and Galectin-9 (Gal9-SULFOTag signal to TIM-3)", "setting": "[5]", "value": "partially blocked"}
    ]},
    {"compound": "NIS793: fully human IgG2 monoclonal antibody that specifically binds and neutralizes TGF-beta 1 and 2 ligands", "values": [
      {"measurement": "cross-reactivity with rodent and cynomolgus monkey TGF-β", "setting": "[6]", "value": "cross-reacts"}
    ]},
    {"compound": "anakinra: recombinant IL-1 receptor antagonist (IL-1Ra)", "values": [
      {"measurement": "BM MSC frequency", "setting": "IL-1 signaling", "value": "increased"},
      {"measurement": "platelet counts", "setting": "IL-1 signaling", "value": "reduced"}
    ]}
  ]
}
